{"source": "ChEMBL document CHEMBL5291721", "about": "“A preclinical secondary pharmacology resource illuminates target-adverse drug reaction associations of marketed drugs” (Nat Commun, 2023); note: assay procedure not described here", "key": {"B2 bradykinin receptor": {"biological_target": "T1, B2 bradykinin receptor (Homo sapiens, UniProt P30411)", "T1 sequence (P30411 whole entry)": "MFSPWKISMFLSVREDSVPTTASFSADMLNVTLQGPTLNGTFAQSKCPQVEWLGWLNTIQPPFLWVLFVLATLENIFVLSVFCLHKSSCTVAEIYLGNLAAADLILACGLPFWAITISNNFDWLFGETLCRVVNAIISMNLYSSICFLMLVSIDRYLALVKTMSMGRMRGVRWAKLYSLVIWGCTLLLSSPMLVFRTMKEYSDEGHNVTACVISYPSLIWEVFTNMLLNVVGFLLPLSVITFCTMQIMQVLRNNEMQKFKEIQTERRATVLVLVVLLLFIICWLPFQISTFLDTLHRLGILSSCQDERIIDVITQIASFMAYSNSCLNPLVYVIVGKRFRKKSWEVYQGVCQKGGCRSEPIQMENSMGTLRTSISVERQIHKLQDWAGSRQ"}, "Estrogen receptor": {"biological_target": "T2, Estrogen receptor (Homo sapiens, UniProt P03372)", "T2 sequence (P03372 whole entry)": "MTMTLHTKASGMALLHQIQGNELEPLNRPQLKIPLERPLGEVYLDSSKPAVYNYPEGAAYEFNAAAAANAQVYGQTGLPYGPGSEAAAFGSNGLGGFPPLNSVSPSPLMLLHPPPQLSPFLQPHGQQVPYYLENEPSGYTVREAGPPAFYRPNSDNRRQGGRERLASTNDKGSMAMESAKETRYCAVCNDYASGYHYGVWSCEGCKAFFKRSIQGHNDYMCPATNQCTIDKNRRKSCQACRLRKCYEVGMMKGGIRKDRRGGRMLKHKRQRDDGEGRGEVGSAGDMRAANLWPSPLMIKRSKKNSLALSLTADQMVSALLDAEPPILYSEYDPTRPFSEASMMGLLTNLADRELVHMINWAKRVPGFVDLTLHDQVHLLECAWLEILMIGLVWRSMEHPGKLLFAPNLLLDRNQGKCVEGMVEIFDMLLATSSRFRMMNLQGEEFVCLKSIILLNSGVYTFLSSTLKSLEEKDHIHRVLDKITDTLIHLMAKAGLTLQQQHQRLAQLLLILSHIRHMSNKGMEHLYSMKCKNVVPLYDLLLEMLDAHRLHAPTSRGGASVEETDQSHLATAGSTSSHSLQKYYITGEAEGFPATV"}, "[1]": {"biological_target": "T3, Alpha-1A adrenergic receptor (Homo sapiens, UniProt P35348)", "T3 sequence (P35348 whole entry)": "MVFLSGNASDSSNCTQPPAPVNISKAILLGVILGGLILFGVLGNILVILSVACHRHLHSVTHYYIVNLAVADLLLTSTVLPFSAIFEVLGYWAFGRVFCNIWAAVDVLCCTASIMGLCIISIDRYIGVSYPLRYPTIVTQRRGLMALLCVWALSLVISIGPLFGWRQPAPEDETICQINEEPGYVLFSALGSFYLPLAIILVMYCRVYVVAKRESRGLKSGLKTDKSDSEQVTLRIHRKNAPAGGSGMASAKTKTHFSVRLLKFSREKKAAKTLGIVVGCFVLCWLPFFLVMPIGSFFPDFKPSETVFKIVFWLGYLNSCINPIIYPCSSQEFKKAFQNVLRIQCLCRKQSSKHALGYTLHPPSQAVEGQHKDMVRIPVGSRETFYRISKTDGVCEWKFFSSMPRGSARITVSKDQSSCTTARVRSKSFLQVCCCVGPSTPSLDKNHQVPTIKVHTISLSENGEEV", "format": "functional, cell-based"}, "[2]": {"biological_target": "T4, Muscarinic acetylcholine receptor M2 (Homo sapiens, UniProt P08172)", "T4 sequence (P08172 whole entry)": "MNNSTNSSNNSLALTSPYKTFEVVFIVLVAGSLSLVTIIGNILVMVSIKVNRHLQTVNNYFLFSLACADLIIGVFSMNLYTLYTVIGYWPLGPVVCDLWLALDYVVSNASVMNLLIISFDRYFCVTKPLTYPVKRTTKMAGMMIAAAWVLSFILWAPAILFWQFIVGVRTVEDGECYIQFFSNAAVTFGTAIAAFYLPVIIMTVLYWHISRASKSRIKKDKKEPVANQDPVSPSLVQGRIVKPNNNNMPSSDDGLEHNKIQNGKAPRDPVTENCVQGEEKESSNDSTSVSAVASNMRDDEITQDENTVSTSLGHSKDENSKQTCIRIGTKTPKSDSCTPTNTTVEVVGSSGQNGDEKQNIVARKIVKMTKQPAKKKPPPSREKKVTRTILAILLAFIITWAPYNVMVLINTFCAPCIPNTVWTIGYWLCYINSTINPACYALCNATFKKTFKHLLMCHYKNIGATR"}, "[3]": {"biological_target": "5-hydroxytryptamine receptor 2B (Homo sapiens, UniProt P41595)", "sequence (P41595 whole entry)": "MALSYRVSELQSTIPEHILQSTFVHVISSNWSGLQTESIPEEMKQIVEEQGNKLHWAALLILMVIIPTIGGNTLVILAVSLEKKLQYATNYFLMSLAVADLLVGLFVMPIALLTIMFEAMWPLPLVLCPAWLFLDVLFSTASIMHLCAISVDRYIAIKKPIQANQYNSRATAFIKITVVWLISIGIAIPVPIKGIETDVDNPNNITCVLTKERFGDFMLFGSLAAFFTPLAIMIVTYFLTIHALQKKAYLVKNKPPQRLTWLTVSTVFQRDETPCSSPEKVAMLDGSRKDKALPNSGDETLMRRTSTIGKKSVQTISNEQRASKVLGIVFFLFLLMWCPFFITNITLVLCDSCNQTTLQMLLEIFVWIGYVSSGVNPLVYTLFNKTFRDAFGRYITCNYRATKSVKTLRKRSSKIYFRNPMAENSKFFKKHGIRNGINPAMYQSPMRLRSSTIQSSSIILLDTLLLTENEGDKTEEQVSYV", "format": "functional, cell-based"}, "[4]": {"biological_target": "T5, Gastrin/cholecystokinin type B receptor (Homo sapiens, UniProt P32239)", "T5 sequence (P32239 whole entry)": "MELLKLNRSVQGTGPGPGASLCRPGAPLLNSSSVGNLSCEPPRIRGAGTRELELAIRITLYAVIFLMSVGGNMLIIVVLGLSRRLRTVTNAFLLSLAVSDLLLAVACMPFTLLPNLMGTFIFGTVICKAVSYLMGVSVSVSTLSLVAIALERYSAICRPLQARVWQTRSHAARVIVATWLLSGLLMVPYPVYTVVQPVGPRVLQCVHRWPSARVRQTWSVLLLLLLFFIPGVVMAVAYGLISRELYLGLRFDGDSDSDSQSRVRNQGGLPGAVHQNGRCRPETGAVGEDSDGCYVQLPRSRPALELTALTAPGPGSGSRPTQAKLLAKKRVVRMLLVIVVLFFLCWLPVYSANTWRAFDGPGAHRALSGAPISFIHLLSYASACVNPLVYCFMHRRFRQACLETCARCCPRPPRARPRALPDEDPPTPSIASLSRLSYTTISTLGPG"}}, "data": [{"smiles": "NC[C@H]1O[C@H](O[C@H]2[C@H](O)[C@@H](O[C@H]3O[C@H](CO)[C@@H](O)[C@H](N)[C@H]3O)[C@H](N)C[C@@H]2N)[C@H](O)[C@@H](O)[C@@H]1O", "note": "[KANAMYCIN]", "values": [{"measurement": "AC50", "setting": "B2 bradykinin receptor", "result": "> 10", "unit": "µM"}, {"measurement": "AC50", "setting": "Estrogen receptor", "result": "> 10", "unit": "µM"}]}, {"smiles": "C#C[C@]1(O)CC[C@H]2[C@@H]3CCC4=CC(=O)CC[C@@H]4[C@H]3CC[C@@]21CC", "note": "[LEVONORGESTREL]", "values": [{"measurement": "AC50", "setting": "[1]", "result": "> 30", "unit": "µM"}, {"measurement": "AC50", "setting": "[2]", "result": "> 30", "unit": "µM"}, {"measurement": "AC50", "setting": "[3]", "result": "> 30", "unit": "µM"}]}, {"smiles": "OC[C@@H](O)[C@@H](O)[C@H](O)[C@H](O)CO", "note": "[MANNITOL]", "values": [{"measurement": "AC50", "setting": "[1]", "result": "> 30", "unit": "µM"}, {"measurement": "AC50", "setting": "[2]", "result": "> 30", "unit": "µM"}, {"measurement": "AC50", "setting": "[3]", "result": "> 30", "unit": "µM"}]}, {"smiles": "CN1CCCC(CN2c3ccccc3Sc3ccccc32)C1", "note": "(stereo not drawn) [MEPAZINE]", "values": [{"measurement": "AC50", "setting": "[1]", "result": "> 30", "unit": "µM"}, {"measurement": "AC50", "setting": "[2]", "result": 0.347, "unit": "µM"}, {"measurement": "AC50", "setting": "[3]", "result": "> 30", "unit": "µM"}]}, {"smiles": "Sc1ncnc2nc[nH]c12", "note": "[MERCAPTOPURINE ANHYDROUS]", "values": [{"measurement": "AC50", "setting": "[1]", "result": "> 30", "unit": "µM"}, {"measurement": "AC50", "setting": "[2]", "result": "> 30", "unit": "µM"}, {"measurement": "AC50", "setting": "[3]", "result": "> 30", "unit": "µM"}]}, {"smiles": "C[N+]1(C)[C@@H]2C[C@@H](OC(=O)[C@H](CO)c3ccccc3)C[C@H]1[C@@H]1O[C@@H]12", "note": "[METHSCOPOLAMINE]", "values": [{"measurement": "AC50", "setting": "[1]", "result": "> 30", "unit": "µM"}, {"measurement": "AC50", "setting": "[3]", "result": "> 30", "unit": "µM"}]}, {"smiles": "C[C@H]1C[C@@H]2[C@H]([C@@H](O)C[C@@]3(C)[C@H]2CC[C@]3(O)C(=O)CO)[C@@]2(C)C=CC(=O)C=C12", "note": "[METHYLPREDNISOLONE]", "values": [{"measurement": "AC50", "setting": "B2 bradykinin receptor", "result": "> 10", "unit": "µM"}]}, {"smiles": "CCN(CC)CCNC(=O)c1cc(Cl)c(N)cc1OC", "note": "[METOCLOPRAMIDE]", "values": [{"measurement": "AC50", "setting": "[4]", "result": "> 30", "unit": "µM"}, {"measurement": "AC50", "setting": "B2 bradykinin receptor", "result": "> 30", "unit": "µM"}, {"measurement": "AC50", "setting": "Estrogen receptor", "result": "> 30", "unit": "µM"}]}, {"smiles": "CC(C)(C(=O)c1cccnc1)c1cccnc1", "note": "[METYRAPONE]", "values": [{"measurement": "AC50", "setting": "B2 bradykinin receptor", "result": "> 10", "unit": "µM"}, {"measurement": "AC50", "setting": "Estrogen receptor", "result": "> 10", "unit": "µM"}]}, {"smiles": "Cc1cccc(C)c1OCC(C)N", "note": "(stereo not drawn) [MEXILETINE]", "values": [{"measurement": "AC50", "setting": "[4]", "result": "> 30", "unit": "µM"}, {"measurement": "AC50", "setting": "B2 bradykinin receptor", "result": "> 30", "unit": "µM"}, {"measurement": "AC50", "setting": "Estrogen receptor", "result": "> 30", "unit": "µM"}]}, {"smiles": "O=C1CC[C@@]2(O)[C@H]3Cc4ccc(O)c5c4[C@@]2(CCN3CC2CC2)[C@H]1O5", "note": "[NALTREXONE]", "values": [{"measurement": "AC50", "setting": "[1]", "result": "> 30", "unit": "µM"}, {"measurement": "AC50", "setting": "[2]", "result": "> 30", "unit": "µM"}, {"measurement": "AC50", "setting": "[3]", "result": "> 30", "unit": "µM"}]}, {"smiles": "CCc1nn(CCCN2CCN(c3cccc(Cl)c3)CC2)c(=O)n1CCOc1ccccc1", "note": "[NEFAZODONE]", "values": [{"measurement": "AC50", "setting": "[4]", "result": "> 30", "unit": "µM"}, {"measurement": "AC50", "setting": "B2 bradykinin receptor", "result": "> 30", "unit": "µM"}, {"measurement": "AC50", "setting": "Estrogen receptor", "result": "> 30", "unit": "µM"}]}, {"smiles": "COC(=O)C1=C(C)NC(C)=C(C(=O)OCC(C)C)C1c1ccccc1[N+](=O)[O-]", "note": "(stereo not drawn) [NISOLDIPINE]", "values": [{"measurement": "AC50", "setting": "B2 bradykinin receptor", "result": "> 10", "unit": "µM"}, {"measurement": "AC50", "setting": "Estrogen receptor", "result": "> 30", "unit": "µM"}]}, {"smiles": "NC1=NC(=O)C(c2ccccc2)O1", "note": "(stereo not drawn) [PEMOLINE]", "values": [{"measurement": "AC50", "setting": "[4]", "result": "> 30", "unit": "µM"}, {"measurement": "AC50", "setting": "B2 bradykinin receptor", "result": "> 30", "unit": "µM"}]}, {"smiles": "CCc1ccc(CCOc2ccc(CC3SC(=O)NC3=O)cc2)nc1", "note": "(stereo not drawn) [PIOGLITAZONE]", "values": [{"measurement": "AC50", "setting": "[1]", "result": "> 30", "unit": "µM"}, {"measurement": "AC50", "setting": "[4]", "result": "> 30", "unit": "µM"}, {"measurement": "AC50", "setting": "B2 bradykinin receptor", "result": "> 30", "unit": "µM"}, {"measurement": "AC50", "setting": "Estrogen receptor", "result": "> 30", "unit": "µM"}, {"measurement": "AC50", "setting": "[2]", "result": "> 30", "unit": "µM"}, {"measurement": "AC50", "setting": "[3]", "result": "> 30", "unit": "µM"}]}, {"smiles": "CC(O)CO", "note": "(stereo not drawn) [PROPYLENE GLYCOL]", "values": [{"measurement": "AC50", "setting": "[1]", "result": "> 30", "unit": "µM"}, {"measurement": "AC50", "setting": "[2]", "result": "> 30", "unit": "µM"}, {"measurement": "AC50", "setting": "[3]", "result": "> 30", "unit": "µM"}]}, {"smiles": "CNC(=O)c1cc(Oc2ccc(NC(=O)Nc3ccc(Cl)c(C(F)(F)F)c3)cc2)ccn1", "note": "[SORAFENIB]", "values": [{"measurement": "AC50", "setting": "[4]", "result": "> 10", "unit": "µM"}, {"measurement": "AC50", "setting": "B2 bradykinin receptor", "result": "> 30", "unit": "µM"}]}, {"smiles": "NC[C@H]1CC[C@H](C(=O)O)CC1", "note": "[TRANEXAMIC ACID]", "values": [{"measurement": "AC50", "setting": "B2 bradykinin receptor", "result": "> 10", "unit": "µM"}, {"measurement": "AC50", "setting": "Estrogen receptor", "result": "> 10", "unit": "µM"}]}]}
